Where a name gives a salt, the structure may show the parent alone.
Target: T1, human Mnk2a (Homo sapiens, UniProt Q9HBH9)
T1 construct: the open reading frames of human Mnk1 and Mnk2a were amplified from cDNA; made in house; host or cells: E. coli BL21
Assay: Mnk2a in vitro kinase assay (indirect fluorescence polarization)
Type: biochemical
Settings: assay of example 2a; 20 μM ATP, 2.5 nM pre-activated Mnk2a; read-out: MNK2 Inhibition (IC50)
Description: Assay principle: Inhibitory potency of compounds against Mnk1, Mnk2a and other kinases was assessed with assays based on a format known to those skilled in the art as the indirect (competitive) fluorescence polarization. The assay detection system comprises a small fluorophore-labeled phospho-peptide (termed ligand) bound to a phospho-specific antibody. The product generated by the kinase reaction competes with the ligand for antibody binding. Based on the larger molecular volume of the bound ligand, which results in a lower rotation rate in solution, its emitted light has a higher degree of polarization than the one from the free ligand.
As a source of enzyme, human Mnk1 and human Mnk2a were expressed as GST fusion proteins in E. coli, purified to >80% homogeneity by glutathione affinity chromatography and activated in vitro with pre-activated ERK2. In brief, the open reading frames of human Mnk1 and Mnk2a were amplified from cDNA using the forward/reverse primer pairs
(utilized restriction sites underlined), respectively, and cloned into the BamHI and SalI sites of the vector pGEX-4T1 (Amersham, Sweden, cat. no. 27-4580-01). These constructs allow prokaryotic expression of Mnk1 or Mnk2a as fusion protein with a N-terminal glutathione S-transferase (GST) tag, referred to as GST-Mnk1 or GST-Mnk2a. The following expression and purification procedure was identical for GST-Mnk1 and GST-Mnk2a, referring in general to GST-Mnk, when not distinguishing between the two isoforms. Expression of GST-Mnk was in E. coli BL21 (Merck Biosciences, Germany, cat. no. 69449). Cells were grown in LB-Bouillon (Merck, Germany, cat. no. 1.10285) supplemented with 100 μg/ml ampicillin (Sigma, Germany, cat. no. A9518) at 37° C. When the culture had reached a density corresponding to an A600 of 0.8, an equal volume of ice cold LB/ampicillin was added, the culture transferred to 25° C. and induced for 4 h with 1 mM isopropyl thiogalactoside (IPTG, Roth, Germany, cat. no. 2316.4). Cells harvested by centrifugation were resuspended in 10 ml lysis buffer (50 mM tris(hydroxymethyl)aminomethane hydrochloride (Tris/HCl, Sigma, Germany, cat. no. T5941) pH 7.5, 300 mM sodium chloride (NaCl, Sigma, Germany, cat. no. S7653), 5% (w/v) glycerol (Sigma, Germany, cat. no. G5516), 3 mM DTT dithiotreitol (DTT, Sigma, Germany, cat. no. D9779)) per gram wet weight cell pellet. Lysates were prepared by disruption of cells with a sonifier and subsequent clearing by centrifugation at 38000 g for 45 min at 4° C.
The lysate was applied to a GSTPrep FF 16/10 column (Amersham, Sweden, cat. no. 17-5234-01) equilibrated with lysis buffer. Removal of unbound material was with 3 column volumes (CV) lysis buffer. Elution was with 2 CV of elution buffer (50 mM Tris/HCl pH 7.5, 300 mM NaCl, 5% (w/v) glycerol, 20 mM glutathione (Sigma, Germany, cat. no. G4251)). Peak fractions were pooled and the protein transferred into storage buffer (50 mM Tris/HCl pH 7.5, 200 mM NaCl, 0.1 mM ethylene glycol-bis(2-aminoethylether)-N,N,N′,N′-tetraacetic acid (EGTA, Aldrich, Germany, cat. no. 23, 453-2), 1 mM DTT, 10% (w/v) glycerol, 0.5 M sucrose (Sigma, Germany, cat. no. S0389) by gel filtration on a PD10 desalting column (Amersham, Sweden, cat. no. 17-0851-01). Aliquots were shock frozen in liquid nitrogen and stored at −80° C.
Activation of Mnk1 and Mnk2a was at a concentration of 2.5 μM of either purified GST-Mnk1 or GST-Mnk2a by incubation with 150 nM pre-activated NHis-ERK2 (see ERK2 assay for preparation) and 50 μM adenosine triphosphate (ATP, Sigma, cat. no. A2699) in a buffer comprising 20 mM N-(2-hydroxyethyl)piperazine-N′-(2-ethanesulfonic acid) (HEPES, Fluka, Germany, cat. no 54459)/potassium hydroxide (KOH, Roth, Germany, cat. no 6751.1) pH 7.4, 10 mM magnesium chloride (MgCl2, Sigma, Germany, cat. no. M2670), 0.25 mM DTT, 0.05% (w/v) polyoxyethylene 20 stearylether (Brij 78, Sigma, Germany, cat. no. P4019) (HMDB buffer) for 45 min at 30° C. […]

T1 sequence (Q9HBH9 whole entry): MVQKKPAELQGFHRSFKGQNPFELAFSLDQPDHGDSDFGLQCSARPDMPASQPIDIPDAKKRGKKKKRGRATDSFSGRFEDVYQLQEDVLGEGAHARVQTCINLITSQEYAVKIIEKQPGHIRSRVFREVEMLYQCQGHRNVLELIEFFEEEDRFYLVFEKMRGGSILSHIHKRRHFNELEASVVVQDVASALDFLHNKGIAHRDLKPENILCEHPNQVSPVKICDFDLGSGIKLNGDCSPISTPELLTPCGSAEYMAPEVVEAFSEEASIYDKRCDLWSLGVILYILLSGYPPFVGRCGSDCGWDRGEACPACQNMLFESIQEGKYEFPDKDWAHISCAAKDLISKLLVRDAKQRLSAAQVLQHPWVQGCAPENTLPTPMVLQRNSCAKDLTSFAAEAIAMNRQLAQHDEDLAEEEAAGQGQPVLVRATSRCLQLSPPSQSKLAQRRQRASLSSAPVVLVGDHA

| SMILES | IC50 |
| --- | --- |
| Cc1c(Br)sc2ncnc(Nc3ccc(F)cc3OC(C)CN)c12 (stereo not shown) [Example 8, [2-(2-Amino-1-methyl-ethoxy)-4-fluoro-phenyl]-(6-bromo-5-methyl-thieno[2,3-d]pyrimidin-4-yl)-amine] | 11 nM |
| Cc1c(Br)sc2ncnc(Nc3ccc(F)cc3OC(C)CNS(C)(=O)=O)c12 (stereo not shown) [Example 10, N-{2-[2-(6-Bromo-5-methyl-thieno[2,3-d]pyrimidin-4-ylamino)-5-fluoro-phenoxy]-propyl}-methanesulfonamide] | 8 nM |
| Cc1c(Cl)sc2ncnc(Nc3ccc(F)cc3OC(C)CN)c12 (stereo not shown) [Example 13, [2-(2-Amino-1-methyl-ethoxy)-4-fluoro-phenyl]-(6-chloro-5-methyl-thieno[2,3-d]pyrimidin-4-yl)-amine trifluoroacetate] | 10 nM |
| Cc1c(Cl)sc2ncnc(Nc3ccc(F)cc3OC(C)CNS(C)(=O)=O)c12 (stereo not shown) [Example 15, N-{2-[2-(6-Chloro-5-methyl-thieno[2,3-d]pyrimidin-4-ylamino)-5-fluoro-phenoxy]-propyl}-methanesulfonamide] | 9 nM |
| CCOc1cc(C(N)=O)ccc1Nc1ncnc2sc(Cl)c(C)c12 [Example 16.2, 4-(6-Chloro-5-methyl-thieno[2,3-d]pyrimidin-4-ylamino)-3-ethoxy-benzamide] | 16 nM |
| Cc1c(Br)sc2ncnc(Nc3ccc(F)cc3OC(C)C)c12 [Example 18, (6-Bromo-5-methyl-thieno[2,3-d]pyrimidin-4-yl)-(4-fluoro-2-isopropoxy-phenyl)-amine] | 58 nM |

System: Mnk2 (Mnk2a or Mnk2b) or Mnk1
Assay: not given
Settings: cell culture cells transfected with Mnk2 (Mnk2a or Mnk2b) or Mnk1; cited from earlier work

| SMILES | reduction of phosphorylated eIF4E |
| --- | --- |
| Nc1ncnc2n[nH]c(Nc3ccc(F)cc3)c12 [CGP57380] | strong reduction |
